Key:
[1] = test system: Glomerella lagenarium (Colletotrichum lagenarium); experiment: Fungicidal activity against Glomerella lagenarium (Colletotrichum lagenarium) liquid culture / cucumber / preventative (anthracnose); type: cell-based; conditions: Colletotrichum orbiculare; 20 ppm in the applied formulation; liquid culture (PDB), growth inhibition measured photometrically after 3 to 4 days; compared to untreated control; read-out: disease control
In short: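 Photometric read-out of fungal growth after 2–7 days, expressed as percent antifungal activity versus untreated check. Cryo-stored conidia in PDB; compound at 20 ppm; dark, 24 °C, 96% RH.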

[2] = test system: Puccinia recondita f. Sp. Tritici; experiment: Fungicidal activity against Puccinia recondita f. sp. tritici / wheat / leaf disc curative (brown rust); type: in vivo; conditions: foliar, 24 h, 200 ppm in the applied formulation, wheat leaf segments, curative (applied 1 day after inoculation), compared to untreated control leaf disks, read-out: disease control
In short: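 Curative test on wheat leaf segments (cv. Kanzler) on agar, inoculated with spore suspension and held dark at 19° C, 75% RH; formulated compound in water applied 1 day after inoculation. Incubated at 19° C, 75% RH, 12 h light/12 h dark; percent disease control versus untreated scored 6 to 8 days after application.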

[3] = test system: Phakopsora Pachyrhizi; experiment: Fungicidal activity against Phakopsora pachyrhizi / soybean / leaf disc preventative (Asian soybean rust); type: in vivo; conditions: foliar, 200 ppm in the applied formulation, soybean leaf disks, compared to untreated control leaf disks, read-out: disease control
In short: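 Preventative soybean leaf-disc test: discs on water agar sprayed with diluted formulated compound, inoculated one day later with spores on the lower surface. Held 24–36 h dark at 20°C, 75% rh, then 12 h light/day; percent disease control versus untreated discs scored 12–14 days after application.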

[4] = test system: Puccinia recondita f. Sp. Tritici; experiment: Fungicidal activity against Puccinia recondita f. sp. tritici / wheat / leaf disc preventative (brown rust); type: in vivo; conditions: foliar, 200 ppm in the applied formulation, wheat leaf segments, preventative, compared to untreated control leaf disks, read-out: disease control
In short: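 Compound application precedes infection: segments of wheat cv. Kanzler, sprayed at 200 ppm, are inoculated with a spore suspension after 1 day. Incubation is at 19° C. with 75% relative humidity and 12 h light/12 h darkness, and control versus untreated leaves is rated 7 to 9 days post-application.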

| SMILES | melting point [°C] | inhibition of growth at 20 ppm [1] [%] | pest or weed control at 200 ppm [2] [%] | pest or weed control at 200 ppm [3] [%] | pest or weed control at 200 ppm [4] [%] |
| --- | --- | --- | --- | --- | --- |
| CON(Cc1ccc(-c2noc(C(F)(F)F)n2)cc1)C(=O)C(NC(=O)C1CC1)C(C)C (stereo not drawn) [Compound 1.54, N-[1-(methoxy-[[4-[5-(trifluoromethyl)-1,2,4-oxadiazol-3-yl]phenyl]methyl]carbamoyl]-2-methyl-propyl]-cyclopropane-carboxamide] | 104.4 to 109 | ≥ 80 | ≥ 80 | ≥ 80 | ≥ 80 |
| CON(C)C(=O)N(Cc1ccc(-c2noc(C(F)(F)F)n2)cc1)OC [Compound 3.3, 1,3-dimethoxy-1-methyl-3-[[4-[5-(trifluoromethyl)-1,2,4-oxadiazol-3-yl]phenyl]methyl]urea] | 74 to 77 | ≥ 80 | ≥ 80 | ≥ 80 | ≥ 80 |
| CON(Cc1ccc(-c2noc(C(F)(F)F)n2)cc1)C(=O)N[C@@H](C)C1CC1 [Compound 3.41, 3-[(1S)-1-cyclopropylethyl]-1-methoxy-1-[[4-[5-(trifluoromethyl)-1,2,4-oxadiazol-3-yl]phenyl]methyl]urea] | 99 to 102 | ≥ 80 | ≥ 80 | ≥ 80 | ≥ 80 |
| CON(Cc1ccc(-c2noc(C(F)(F)F)n2)cc1)C(=O)NCC#N [Compound 3.39, 3-(cyanomethyl)-1-methoxy-1-[[4-[5-(trifluoromethyl)-1,2,4-oxadiazol-3-yl]phenyl]methyl]urea] | 155 to 158 | ≥ 80 | ≥ 80 | ≥ 80 | ≥ 80 |

The next lines start with results.

| melting point [°C] | SMILES | inhibition of growth at 20 ppm [1] [%] | pest or weed control at 200 ppm [2] [%] | pest or weed control at 200 ppm [3] [%] | pest or weed control at 200 ppm [4] [%] |
| --- | --- | --- | --- | --- | --- |
| 93 to 97 | CON(Cc1ccc(-c2noc(C(F)(F)F)n2)cc1)C(=O)NC1(C)CC1 [Compound 3.46, 1-methoxy-3-(1-methylcyclopropyl)-1-[[4-[5-(trifluoromethyl)-1,2,4-oxadiazol-3-yl]phenyl]methyl]urea] | ≥ 80 | ≥ 80 | ≥ 80 | ≥ 80 |
| 98 to 101 | CON(Cc1ccc(-c2noc(C(F)(F)F)n2)cc1)C(=O)NCC(=O)N(C)C [Compound 3.51, 2-[[methoxy-[[4-[5-(trifluoromethyl)-1,2,4-oxadiazol-3-yl]phenyl]methyl]-carbamoyl]amino]-N,N-dimethyl-acetamide] | ≥ 80 | ≥ 80 | ≥ 80 | ≥ 80 |
| 106 to 107.3 | CON(Cc1ccc(-c2noc(C(F)(F)F)n2)cc1)C(=O)NC(C)C [Compound 3.42, 3-isopropyl-1-methoxy-1-[[4-[5-(trifluoromethyl)-1,2,4-oxadiazol-3-yl]phenyl]methyl]urea] | ≥ 80 | ≥ 80 | ≥ 80 | ≥ 80 |
| 93 to 97 | CCOC(=O)C1(NC(=O)N(Cc2ccc(-c3noc(C(F)(F)F)n3)cc2)OC)CC1 [Compound 3.48, ethyl 1-[[methoxy-[[4-[5-(trifluoromethyl)-1,2,4-oxadiazol-3-yl]phenyl]methyl]-carbamoyl]amino]-cyclopropanecarboxylate] | ≥ 80 | ≥ 80 | ≥ 80 | ≥ 80 |
| 88.9 to 90.6 | C#CCNC(=O)N(Cc1ccc(-c2noc(C(F)(F)F)n2)cc1)OC [Compound 3.43, 1-methoxy-3-prop-2-ynyl-1-[[4-[5-(trifluoromethyl)-1,2,4-oxadiazol-3-yl]phenyl]methyl]urea] | ≥ 80 | ≥ 80 | ≥ 80 | ≥ 80 |
